Laboratory results reported in paper PMC4084896 (PLoS ONE, 2014).
Where two headings read alike, the source gives them in different places.

How the values were obtained:
[1] = biological target: T1, AhR (Mus musculus, UniProt P30561); assay: EMSA with nuclear extracts from Hepa-1c1c7 cells (AhR-ARNT-DRE complex); format: cell-based; details: Hepa-1c1c7 nuclear extracts, 50 µM, 2 h
T1 construct: endogenous in cells; host or cells: mouse hepatoma Hepa-1c1c7 cells (living cells treated 2 h, then nuclear extracts made)
Method: Electrophoretic mobility shift assay was performed in guinea pig cytosol and nuclear extract from mouse hepatoma cells. Hepa-1c1c7 cells were incubated for 2 h with tested compounds. Nuclear extracts procedure and EMSA analysis was performed as previously described (Soshilov & Denison; 2014). Guinea pig hepatic cytosol (8 mg/mL in HEDG) was incubated for 2 h in a room temperature water bath with tested compounds. An aliquot of the reaction was mixed with poly[dI•dC] and [^32P]-DRE (100.000 cpm), and AHR:DRE:[^32P]DRE complexes were resolved by gel retardation analysis, visualized by autoradiography and quantified by phosphorimager analysis (FujiFilm) of the dried gels.
We carried out the electrophoretic mobility shift assay (EMSA) to reveal whether effects of KET on AhR-CYP1A pathway involve transformation of AhR to DNA binding form, and whether these effects are enantiospecific. For this purpose, EMSA was performed in two experimental systems: (i) Hepatic guinea pig cytosol was treated for 2 hours with DMSO, 20 nM TCDD, (+)-KET, (−)-KET and commercial rac-KET (from Sigma) at 10 µM, 30 µM and 50 µM. All forms of KET transformed AhR to DNA binding form, but the activation was very weak and not statistically above background. There was a slightly stronger effect of (+)-KET and rac-KET as compared to (−)-KET, but the difference was not significant (Figure 4A). (ii) Since we obtained only weak signals in guinea pig liver cytosols, we also analyzed nuclear extracts from mouse hepatoma Hepa-1c1c7 cells treated for 2 hours with DMSO, TCDD (10 nM), (+)-KET (50 µM), (−)-KET (50 µM), commercial rac-KET (Sigma; 50 µM) or an equimolar mix of (+)/(−) enantiomers (50 µM total). […] The effects of (−)-KET were slightly stronger as compared to (+)-KET. […] In addition, we observed formation of the second band with lower molecular weight than AhR-ARNT-DRE, by purified KET enantiomers but not by TCDD and commercial KET.

[2] = biological target: T2, aryl hydrocarbon receptor AhR (Homo sapiens, UniProt P35869); assay: AhR gene reporter assay in AZ-AHR cells, agonist mode; format: cell-based; details: for EC50: 24 h, agonist mode
T2 construct: endogenous in cells; host or cells: AZ-AHR (stably transfected reporter line derived from HepG2)
T2 sequence (P35869 11-848): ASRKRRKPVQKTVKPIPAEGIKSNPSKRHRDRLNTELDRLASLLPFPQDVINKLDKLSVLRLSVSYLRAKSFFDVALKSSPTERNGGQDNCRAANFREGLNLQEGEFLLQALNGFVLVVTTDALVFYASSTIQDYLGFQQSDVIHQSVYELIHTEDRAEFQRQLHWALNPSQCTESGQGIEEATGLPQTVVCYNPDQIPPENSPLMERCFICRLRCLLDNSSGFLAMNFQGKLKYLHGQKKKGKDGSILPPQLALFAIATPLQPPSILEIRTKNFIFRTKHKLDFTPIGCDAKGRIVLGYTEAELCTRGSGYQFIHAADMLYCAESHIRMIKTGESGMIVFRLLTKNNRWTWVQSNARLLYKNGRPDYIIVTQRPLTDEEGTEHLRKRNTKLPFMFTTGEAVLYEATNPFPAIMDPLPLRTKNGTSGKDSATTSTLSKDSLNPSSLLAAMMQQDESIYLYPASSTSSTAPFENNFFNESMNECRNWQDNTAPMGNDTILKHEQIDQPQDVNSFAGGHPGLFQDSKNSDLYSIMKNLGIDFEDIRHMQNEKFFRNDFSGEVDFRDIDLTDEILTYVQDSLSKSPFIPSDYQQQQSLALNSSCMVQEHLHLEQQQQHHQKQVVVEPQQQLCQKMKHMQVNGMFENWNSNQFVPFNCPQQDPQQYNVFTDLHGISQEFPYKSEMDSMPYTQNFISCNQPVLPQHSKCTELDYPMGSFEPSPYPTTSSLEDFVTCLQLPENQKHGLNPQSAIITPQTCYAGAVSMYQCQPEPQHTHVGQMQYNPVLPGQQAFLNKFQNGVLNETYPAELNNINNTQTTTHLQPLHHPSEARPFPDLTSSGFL
Source text: (§1) A stably transfected gene reporter cell line AZ-AHR, derived from human hepatoma HepG2 cells transfected with a construct containing several AhR binding sites upstream of a luciferase reporter gene, was used for assessment of AhR transcriptional activity. A stably transfected gene reporter cell line AZ-GR, derived from human cervix carcinoma HeLa cells transfected with a construct containing several GR response elements upstream of a luciferase reporter gene, was used for assessment of GR transcriptional activity. Cells were incubated for 24 h with tested compounds and/or vehicle (DMSO; 0.1% v/v), in the presence or absence of TCDD (5 nM; AZ-AHR cells) or DEX (100 nM; AZ-GR cells). After the treatments, cells were lysed and luciferase activity was measured. In parallel, cell viability was determined by conventional MTT test.
(§2) Gene reporter assays were performed in two different experimental layouts. In agonist mode, cells were treated with increasing concentrations of tested compounds, and the half-maximal effective concentrations (EC50) were calculated.

[3] = biological target: T2, aryl hydrocarbon receptor AhR; assay: AhR gene reporter assay in AZ-AHR cells, antagonist mode (TCDD 5 nM); format: cell-based; details: 24 h, in the presence of TCDD 5 nM
Source text: as §1, §2

[4] = system: tyrosine aminotransferase (TAT) mRNA; assay: TAT mRNA in HepG2 cells (qRT-PCR); format: cell-based, human; details: HepG2, 1, 30, 50 µM, 24 h

T1 sequence (P30561 10-805 limits assumed): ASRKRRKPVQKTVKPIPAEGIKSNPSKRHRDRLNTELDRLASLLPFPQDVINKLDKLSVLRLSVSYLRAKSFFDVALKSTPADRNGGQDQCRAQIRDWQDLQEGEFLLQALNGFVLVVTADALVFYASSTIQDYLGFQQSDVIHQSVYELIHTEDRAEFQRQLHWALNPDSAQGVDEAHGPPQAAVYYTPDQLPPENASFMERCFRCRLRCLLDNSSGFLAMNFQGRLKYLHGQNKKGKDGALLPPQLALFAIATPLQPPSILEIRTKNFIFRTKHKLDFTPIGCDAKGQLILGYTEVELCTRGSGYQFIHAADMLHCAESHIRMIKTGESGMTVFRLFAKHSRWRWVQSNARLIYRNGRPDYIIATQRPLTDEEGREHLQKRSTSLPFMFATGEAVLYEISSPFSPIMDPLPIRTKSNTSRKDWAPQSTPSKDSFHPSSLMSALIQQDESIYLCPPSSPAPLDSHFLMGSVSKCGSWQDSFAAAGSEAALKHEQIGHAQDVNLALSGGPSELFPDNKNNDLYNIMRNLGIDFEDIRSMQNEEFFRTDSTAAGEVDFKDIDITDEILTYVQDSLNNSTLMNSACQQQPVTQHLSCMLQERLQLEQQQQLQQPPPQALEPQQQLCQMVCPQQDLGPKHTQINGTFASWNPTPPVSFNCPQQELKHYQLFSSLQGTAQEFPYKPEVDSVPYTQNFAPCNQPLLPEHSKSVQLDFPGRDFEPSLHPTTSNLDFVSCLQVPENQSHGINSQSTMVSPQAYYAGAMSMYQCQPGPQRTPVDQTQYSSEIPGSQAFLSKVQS
T1 sequence (P53762 whole entry partner): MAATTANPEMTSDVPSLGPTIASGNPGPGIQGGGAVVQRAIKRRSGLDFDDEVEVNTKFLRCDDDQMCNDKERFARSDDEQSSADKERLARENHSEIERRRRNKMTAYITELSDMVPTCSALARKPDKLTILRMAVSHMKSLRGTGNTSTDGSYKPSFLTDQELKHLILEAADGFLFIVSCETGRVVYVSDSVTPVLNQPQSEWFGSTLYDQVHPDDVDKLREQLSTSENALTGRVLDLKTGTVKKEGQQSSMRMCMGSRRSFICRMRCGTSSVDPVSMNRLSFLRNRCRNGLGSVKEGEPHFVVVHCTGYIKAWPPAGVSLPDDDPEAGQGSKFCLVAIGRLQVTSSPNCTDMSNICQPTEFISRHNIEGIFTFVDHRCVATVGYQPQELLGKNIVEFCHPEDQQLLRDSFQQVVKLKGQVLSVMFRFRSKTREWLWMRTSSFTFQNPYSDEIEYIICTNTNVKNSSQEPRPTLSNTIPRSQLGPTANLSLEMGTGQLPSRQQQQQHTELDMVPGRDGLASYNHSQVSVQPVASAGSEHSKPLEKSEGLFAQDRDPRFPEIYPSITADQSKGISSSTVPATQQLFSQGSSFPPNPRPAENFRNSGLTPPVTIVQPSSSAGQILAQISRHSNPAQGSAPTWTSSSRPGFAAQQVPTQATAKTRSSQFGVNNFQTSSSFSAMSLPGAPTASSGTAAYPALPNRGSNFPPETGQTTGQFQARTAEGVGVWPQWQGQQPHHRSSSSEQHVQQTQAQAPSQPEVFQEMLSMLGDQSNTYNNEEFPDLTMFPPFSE

| SMILES | formation of AhR-ARNT-DRE complex, % of TCDD effects ([1]; TCDD 10 nM) | AZ-AHR gene reporter - agonist efficacy [2] | EC50 [2] | IC50 [3] | TAT mRNA induction (in words) [4] | transformation of AhR to DNA binding form (in words) [1] | AZ-AHR gene reporter - agonist efficacy ([2]; average value printed in Figure 1B, relative to TCDD) |
| --- | --- | --- | --- | --- | --- | --- | --- |
| CC(=O)N1CCN(c2ccc(OCC3COC(Cn4ccnc4)(c4ccc(Cl)cc4Cl)O3)cc2)CC1 (racemic) [rac-KET, ketoconazole] | approx. 60% | 15,4 ± 9,4% | 5.2 µM | 31.1 ± 3.7 µM | strong, concentration-dependent induction |  |  |
| CC(=O)N1CCN(c2ccc(OC[C@H]3CO[C@](Cn4ccnc4)(c4ccc(Cl)cc4Cl)O3)cc2)CC1 [(+)-KET, (2R,4S)-(+)-KET] |  |  | 3.2 µM | 22.3 ± 6.3 µM | strong, concentration-dependent induction | only weakly transformed | 23,5 ± 12,2% |
